A short description of one data set: Aqueous solubility. The data set is classed as physicochemical.
The target in another data set is rhMMP-13 (Homo sapiens, UniProt P45452). Put plainly: MMP inhibition assay, fluorogenic substrate cleavage (Ki). Particulars: read-out: Ki rhMMP-13; mean ± SE.
The target of another data set is rhMMP-9 (Homo sapiens, UniProt P14780). The description is as above.
A further data set deals with rhMMPs. Put plainly: In vitro MMP binding screens (panel). The following applies: several MMPs.
A further data set deals with rhMMP-12 (Homo sapiens, UniProt P39900). Put plainly: MMP inhibition assay, fluorogenic substrate cleavage (Ki).
The target in another data set is T1, rhMMP-7 (Homo sapiens, UniProt P09237).
T1 sequence (P09237 95-267): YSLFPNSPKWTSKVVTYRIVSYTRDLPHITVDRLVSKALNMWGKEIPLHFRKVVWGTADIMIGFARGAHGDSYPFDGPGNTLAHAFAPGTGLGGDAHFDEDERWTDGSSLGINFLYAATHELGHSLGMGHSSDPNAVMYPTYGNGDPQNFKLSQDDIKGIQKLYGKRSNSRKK
The data set is described as above. Particulars: read-out: Ki rhMMP-7; mean ± SE.

Another data set addresses T2, rhMMP-2 (Homo sapiens, UniProt P08253).
T2 sequence (P08253 110-660): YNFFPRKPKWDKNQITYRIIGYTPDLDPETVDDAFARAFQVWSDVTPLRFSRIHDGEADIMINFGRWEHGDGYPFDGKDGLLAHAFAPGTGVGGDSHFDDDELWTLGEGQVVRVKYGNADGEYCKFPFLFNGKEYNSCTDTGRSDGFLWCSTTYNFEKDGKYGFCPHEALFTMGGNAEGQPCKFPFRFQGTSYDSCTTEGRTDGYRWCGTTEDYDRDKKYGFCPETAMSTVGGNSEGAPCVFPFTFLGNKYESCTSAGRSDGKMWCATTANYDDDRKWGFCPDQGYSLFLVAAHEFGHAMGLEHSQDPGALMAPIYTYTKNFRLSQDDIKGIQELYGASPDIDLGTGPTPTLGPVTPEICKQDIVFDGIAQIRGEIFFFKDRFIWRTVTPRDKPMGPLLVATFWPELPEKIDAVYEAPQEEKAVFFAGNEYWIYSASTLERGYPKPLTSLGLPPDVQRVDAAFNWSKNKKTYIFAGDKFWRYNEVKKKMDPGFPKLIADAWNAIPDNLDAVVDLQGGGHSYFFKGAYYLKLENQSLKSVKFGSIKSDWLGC
The data set is described as above.

Setting [1] is: read-out: Ki rhMMP-9, mean ± SE.
Where [2] appears, read: read-out: Ki rhMMP-12, mean ± SE.
[3] abbreviates: read-out: Ki rhMMP-2, mean ± SE.

Entries after “also recorded” stand apart in the source; their conditions may differ. Like-named read-outs stand apart in the source and are kept apart here.

Chain of rhMMP-12 (P39900 106-470): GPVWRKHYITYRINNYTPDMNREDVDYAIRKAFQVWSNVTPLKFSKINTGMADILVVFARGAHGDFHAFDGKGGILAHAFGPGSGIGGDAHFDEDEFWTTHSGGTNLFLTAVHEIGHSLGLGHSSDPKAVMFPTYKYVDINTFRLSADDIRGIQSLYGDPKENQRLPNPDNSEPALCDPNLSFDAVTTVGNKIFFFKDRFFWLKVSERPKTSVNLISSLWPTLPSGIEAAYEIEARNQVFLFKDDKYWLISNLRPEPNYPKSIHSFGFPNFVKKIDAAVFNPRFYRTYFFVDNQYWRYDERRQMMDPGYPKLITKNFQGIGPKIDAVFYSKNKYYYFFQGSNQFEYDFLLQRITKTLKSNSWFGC
Chain of rhMMP-9 (P14780 107-707 limits assumed): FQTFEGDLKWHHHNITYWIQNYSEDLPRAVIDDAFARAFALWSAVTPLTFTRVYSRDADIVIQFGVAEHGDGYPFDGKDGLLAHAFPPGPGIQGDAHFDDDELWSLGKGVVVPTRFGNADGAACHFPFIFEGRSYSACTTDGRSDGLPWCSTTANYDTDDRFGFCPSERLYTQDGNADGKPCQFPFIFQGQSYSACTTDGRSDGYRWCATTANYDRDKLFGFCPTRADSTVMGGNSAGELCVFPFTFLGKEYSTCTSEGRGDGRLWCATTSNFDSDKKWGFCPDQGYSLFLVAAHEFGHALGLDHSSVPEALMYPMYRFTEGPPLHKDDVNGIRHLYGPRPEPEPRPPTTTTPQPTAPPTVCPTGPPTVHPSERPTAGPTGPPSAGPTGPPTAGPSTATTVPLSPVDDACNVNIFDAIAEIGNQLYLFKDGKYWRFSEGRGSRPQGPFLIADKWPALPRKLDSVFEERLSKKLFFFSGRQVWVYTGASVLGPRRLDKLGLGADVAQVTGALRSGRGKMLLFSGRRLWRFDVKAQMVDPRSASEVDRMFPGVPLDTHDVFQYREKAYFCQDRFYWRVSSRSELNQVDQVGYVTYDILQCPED
Method for rhMMP-12: (§1) MMPs were purchased from R&D Systems (Minneapolis, Minn.). MMP inhibition assays were carried out in 50 mM Tris/HCl buffer, pH=6.8, 10 mM CaCl2 at 25° C. […] Titration experiments were carried out to determine active enzyme concentration for each MMP prior to the assay. For each probe, the % of inhibition was determined from five different concentrations in triplicates, chosen to reach a range of 20-80% inhibition.
(§2) The recombinant human MMPs including rhMMP-2, rhMMP-9, and rhMMP-12 obtained from R&D Systems (Minneapolis, Minn., USA) were activated by 1 mM p-aminophenylmercuric acetate (APMA, Sigma) at 37° C. for certain hours according to the manufacturer's instructions. The activated MMPs were diluted in the assay buffer consisting of 50 mM Tris, 10 mM CaCl2, 150 mM NaCl, 0.05% Brij-35 (w/v), pH 7.5 (TCNB). The assays were carried out in 96-well non-binding surface black microplates (Fisher Scientific).
(§3) The solutions were incubated at room temperature for 20 min. 10 μL of the fluorogenic MMP substrate i.e. Mca-KPLGL-Dpa-AR-NH2 (R&D Systems) at 4 different concentrations (such as 50.0 μM, 40.0 μM, 30.0 μM, and 20.0 μM) in assay buffer were added before starting the fluorescence measurements. The kinetics (v) of fluorescence changes were measured at excitation and emission wavelengths of 320 nm and 405 nm for 30 min (1.44 min intervals, sensitivity 100, shaking intensity 4, duration 30 s) by a fluorescent plate reader (BIO-TEK/Synergy HT). The inhibition constants (Ki) of the inhibitor with MMPs were calculated from the mean velocity values using GraphPad Prism 6 by the equation:
Method for rhMMP-13: as §1, §2, §3
Method for rhMMP-2: (§4) MMP inhibition assays were carried out in 50 mM Tris/HCl buffer, pH=6.8, 10 mM CaCl2 at 25° C. […] Titration experiments were carried out to determine active enzyme concentration for each MMP prior to the assay.
as §2
(§5) The solutions were incubated at room temperature for 20 min. 10 μL of the fluorogenic MMP substrate i.e. Mca-KPLGL-Dpa-AR-NH2 (R&D Systems) at 4 different concentrations (such as 50.0 μM, 40.0 μM, 30.0 μM, and 20.0 μM) in assay buffer were added before starting the fluorescence measurements. […] The inhibition constants (Ki) of the inhibitor with MMPs were calculated from the mean velocity values using GraphPad Prism 6 by the equation:
Method for rhMMP-7: as §1, §2, §3
Method for rhMMP-9: as §4, §2, §5
Method for rhMMPs: as §1, §2, §3

On to `CC(C)CC1C(=O)NC(C(=O)NC(CCCNC(=N)N)C(=O)NCCNC(=O)c2ccc(NN)nc2)Cc2ccc(cc2)OCCCC1C(=O)NO` [Compound 1, (6S,7R,10S)—N^10—((S)-5-guanidino-1-((2-(6-hydrazinylnicotinamido)ethyl)amino)-1-oxopentan-2-yl)-N^6-hydroxy-7-isobutyl-8-oxo-2-oxa-9-aza-1(1,4)-benzenacycloundecaphane-6,10-dicarboxamide], for which the “water solubility (in words)” value in “Aqueous solubility” was “good aqueous solubility; also recorded: good water solubility”. The Ki – broadly, a measure of affinity in units of concentration, obtained from inhibition or displacement – on rhMMP-13 was 16.9 ± 2.7 nM; at rhMMP-9 (setting [1]), 17.4 ± 2.1 nM; on rhMMP-12 (setting [2]) it was 2.2 ± 0.5 nM; on rhMMP-7, 33.2 ± 5 nM; at rhMMP-2 (setting [3]), 10.4 nM. Besides, the “affinity for rhMMP-9 (in words)” value at rhMMP-9 is “high affinity”. Also, the “MMP binding / inhibition constants (in words)” value in the data set on rhMMPs is “MMP binding profiles similar to the RP805 precursor; also recorded: nanomolar range inhibition constants”. In addition, the “affinity for rhMMP-12 (in words)” value at rhMMP-12 is given as “high affinity”. Besides, the “affinity for rhMMP-2 (in words)” value on rhMMP-2 is “high affinity”.

`CC(C)CC1C(=O)NC(C(=O)NCCOCCOCCOCCF)Cc2ccc(cc2)OCCCC1C(=O)NO` [Compound 17, (6S,7R,10S)—N10-(2-(2-(2-(2-fluoroethoxy)ethoxy)ethoxy)ethyl)-N^6-hydroxy-7-isobutyl-8-oxo-2-oxa-9-aza-1(1,4)-benzenacycloundecaphane-6,10-dicarboxamide]: the inhibition constant Ki at rhMMP-9 (setting [1]) came out at 8.8 ± 0.8 nM; at rhMMP-12 (setting [2]), 2.1 ± 0.3 nM; at rhMMP-2 (setting [3]), 8.6 ± 1.3 nM.

As for `CNC(=O)[C@H](CCCNC(=N)N)NC(=O)[C@@H]1Cc2ccc(cc2)OCCC[C@H](C(=O)NO)[C@@H](CC(C)C)C(=O)N1` [Compound 19, (6S,7R,10S)—N10-((S)-5-guanidino-1-(methylamino)-1-oxopentan-2-yl)-N6-hydroxy-7-isobutyl-8-oxo-2-oxa-9-aza-1(1,4)-benzenacycloundecaphane-6,10-dicarboxamide], the inhibitory constant (Ki) at rhMMP-13 was 15.3 ± 5.4 nM; on rhMMP-9 (setting [1]) it was 20.4 ± 2 nM; on rhMMP-12 (setting [2]), 1 ± 0.2 nM; at rhMMP-7 it was 17.1 ± 0.1 nM; on rhMMP-2 (setting [3]), 5.8 ± 0.4 nM. Besides, the “MMP binding / inhibition constants (in words)” value in the data set on rhMMPs is given as “MMP binding profiles similar to the RP805 precursor”.

`CC(C)C[C@H]1C(=O)N[C@H](C(=O)O)Cc2ccc(cc2)OCCC[C@@H]1C(=O)NO` [Compound 20, (6S,7R,10S)-6-(hydroxycarbamoyl)-7-isobutyl-8-oxo-2-oxa-9-aza-1(1,4)-benzenacycloundecaphane-10-carboxylic acid]: the inhibition constant (Ki) on rhMMP-9 amounted to 60.6 ± 11 nM; on rhMMP-12, 1.7 ± 0.2 nM; on rhMMP-2 it was 101 ± 12.2 nM.

In the case of `CNC(=O)[C@H](Cc1c[nH]c2ccccc12)NC(=O)[C@@H](CC(=O)NO)CC(C)C` [GM-6001, reference compound], the Ki at rhMMP-13 amounted to 0.3 nM; on rhMMP-12, 0.57 nM; on rhMMP-7, 0.4 nM.

The values above are taken from patent US11286251B2, “Matrix metalloproteinase inhibitors and imaging agents, and methods using same” (Yale University, priority 2016, dated 2022).
